# Values of other authors as cited in patent US20250312332A1, “TREATMENT OF MUSCLE FIBROSIS” (University of Newcastle upon Tyne, priority 2022, published 2025).
# Structures can show the parent of a compound that is named as a salt. Where two headings read alike, the source gives them in different places.
# What was measured:
# rat aorta = details: cited from earlier work
# [1] = spontaneously hypertensive rat; cited from earlier work
# ROCK1 = ROCK1 (Homo sapiens, UniProt Q13464); details: cited from earlier work
# [2] = monkey eyes; cited from earlier work
# PASMC = details: cited from earlier work
# [3] = after transient middle cerebral artery occlusion; cited from earlier work
# [4] = insulin-resistant mice; cited from earlier work
# Rho signaling = details: cited from earlier work
# [5] = test system: PC-3 prostate cancer cell; details: in vitro; cited from earlier work
# [6] = 0.1%, 0.3%, and 0.5%, cited from earlier work
# ROCK2 = ROCK2 (Homo sapiens, UniProt O75116); details: cited from earlier work
# MLCK = details: cited from earlier work; for Ki: read-out: Ki for MLCK / MLC-kinase
# [7] = test system: T47D and CAMA-1 breast cancer cells; details: T47D and CAMA-1 cells; cited from earlier work
# MRCK = details: read-out: IC50 against MRCK; cited from earlier work
# RhoA = RhoA (Homo sapiens, UniProt P61586); details: read-out: Kd for RhoA (RhoA subfamily Rho GTPases); cited from earlier work
# neuronal cultures = details: cited from earlier work
# ROCK [8] = details: read-out: Ki (ROCK / Rho kinase); cited from earlier work
# PKC = details: cited from earlier work
# PC-3 cell = details: read-out: IC50 for PC-3 cell migration; cited from earlier work
# MKL1 expression = details: 25 μM; cited from earlier work
# MRCKα = MRCKα (Homo sapiens, UniProt Q5VT25); details: cited from earlier work
# [9] = test system: myosin II light chain (MLC) phosphorylation induced by MRCKβ; details: in vitro; cited from earlier work
# ROCK [10] = details: read-out: Kds, binding to ROCK; cited from earlier work
# [11] = in vitro; cited from earlier work
# PKA = details: cited from earlier work
# HMG-COA reductase = HMG-COA reductase (Homo sapiens, UniProt P04035); details: cited from earlier work
# MDA-MB-231 cells = details: cited from earlier work
# rat ROCK-2 = rat ROCK-2 (Rattus norvegicus, UniProt Q62868); details: cited from earlier work
# [12] = test system: ROCK-mediated phosphorylation of MYPTT696; details: thoracic aorta of spontaneously hypertensive rats; cited from earlier work
# B16BL6 and 4T1 cells = details: murine animal models; cited from earlier work
# [13] = test system: Cdc42 or Rac1, nor the GEF, LARG; details: cited from earlier work
# [14] = target: cGMP-dependent protein kinase (PKG); details: cited from earlier work
# RAW 264.7 = details: LPS plus INF-y; 18 hours; read-out: IC50 for accumulation of nitrite in RAW 264.7; cited from earlier work
# RAVSMC = details: LPS plus INF-y; 18 hours; read-out: IC50 for accumulation of nitrite in RAVSMC; cited from earlier work
# iNOS gene expression = details: 10-100 μM; 18 hours; cited from earlier work
# CaM kinase II = details: cited from earlier work
# [15] = target: Leukemia-associated Rho guanine nucleotide exchange factor (LARG) (Homo sapiens, UniProt Q9NZN5); details: cited from earlier work
# NIH 3T3 cells = details: 10-30 μM, 24 hours; cited from earlier work
# [16] = test system: Rab2, Rab7, H-Ras, Rac1, Rac 2 and RhoA wild-type; details: cited from earlier work
# Cdc42 = Cdc42 (Homo sapiens, UniProt P60953); details: cited from earlier work
# granulocytes = details: 50 μM; for 15 min; cited from earlier work
# [17] = test system: other Rho GTPases (such as Cdc42 or RhoA); details: cited from earlier work
# Rac1 = Rac1 (Homo sapiens, UniProt P63000); details: cited from earlier work
# B16 melanoma [18] = details: cited from earlier work
# B16 melanoma [19] = details: cited from earlier work; remark: listed apart in the source
# ROCK2, sequence (O75116 whole entry): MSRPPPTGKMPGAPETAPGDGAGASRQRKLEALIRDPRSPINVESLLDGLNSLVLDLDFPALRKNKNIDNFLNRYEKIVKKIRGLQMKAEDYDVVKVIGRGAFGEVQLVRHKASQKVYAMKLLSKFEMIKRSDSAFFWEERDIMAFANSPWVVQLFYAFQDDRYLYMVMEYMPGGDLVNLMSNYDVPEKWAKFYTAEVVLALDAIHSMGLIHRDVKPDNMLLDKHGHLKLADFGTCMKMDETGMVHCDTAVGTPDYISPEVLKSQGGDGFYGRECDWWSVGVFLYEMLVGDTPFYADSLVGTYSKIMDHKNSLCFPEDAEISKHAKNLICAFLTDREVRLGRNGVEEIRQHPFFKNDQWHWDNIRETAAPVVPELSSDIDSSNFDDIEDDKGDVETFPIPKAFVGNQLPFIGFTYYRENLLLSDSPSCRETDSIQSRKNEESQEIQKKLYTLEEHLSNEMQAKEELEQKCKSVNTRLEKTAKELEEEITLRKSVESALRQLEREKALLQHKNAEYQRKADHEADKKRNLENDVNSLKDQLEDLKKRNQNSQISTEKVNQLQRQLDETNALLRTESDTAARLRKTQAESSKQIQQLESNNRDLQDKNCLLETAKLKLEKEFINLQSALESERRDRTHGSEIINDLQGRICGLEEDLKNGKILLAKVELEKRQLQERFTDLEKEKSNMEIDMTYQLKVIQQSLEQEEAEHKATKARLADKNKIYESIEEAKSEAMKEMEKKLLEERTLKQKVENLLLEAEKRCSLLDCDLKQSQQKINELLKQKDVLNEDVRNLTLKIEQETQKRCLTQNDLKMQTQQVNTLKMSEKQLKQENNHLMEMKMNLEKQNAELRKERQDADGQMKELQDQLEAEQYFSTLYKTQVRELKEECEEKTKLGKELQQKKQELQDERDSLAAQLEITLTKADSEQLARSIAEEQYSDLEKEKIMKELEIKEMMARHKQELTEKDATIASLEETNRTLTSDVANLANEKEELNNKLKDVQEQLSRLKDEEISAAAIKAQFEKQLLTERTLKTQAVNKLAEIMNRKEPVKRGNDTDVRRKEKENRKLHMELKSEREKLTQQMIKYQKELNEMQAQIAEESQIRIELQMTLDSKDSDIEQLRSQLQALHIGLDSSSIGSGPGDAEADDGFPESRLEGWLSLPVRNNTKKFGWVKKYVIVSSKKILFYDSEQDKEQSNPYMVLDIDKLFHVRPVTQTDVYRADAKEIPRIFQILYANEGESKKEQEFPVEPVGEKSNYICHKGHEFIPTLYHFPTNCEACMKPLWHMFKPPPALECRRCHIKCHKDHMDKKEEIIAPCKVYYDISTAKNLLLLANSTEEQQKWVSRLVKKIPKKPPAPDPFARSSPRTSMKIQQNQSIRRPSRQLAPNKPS
# ROCK1, sequence (Q13464 whole entry): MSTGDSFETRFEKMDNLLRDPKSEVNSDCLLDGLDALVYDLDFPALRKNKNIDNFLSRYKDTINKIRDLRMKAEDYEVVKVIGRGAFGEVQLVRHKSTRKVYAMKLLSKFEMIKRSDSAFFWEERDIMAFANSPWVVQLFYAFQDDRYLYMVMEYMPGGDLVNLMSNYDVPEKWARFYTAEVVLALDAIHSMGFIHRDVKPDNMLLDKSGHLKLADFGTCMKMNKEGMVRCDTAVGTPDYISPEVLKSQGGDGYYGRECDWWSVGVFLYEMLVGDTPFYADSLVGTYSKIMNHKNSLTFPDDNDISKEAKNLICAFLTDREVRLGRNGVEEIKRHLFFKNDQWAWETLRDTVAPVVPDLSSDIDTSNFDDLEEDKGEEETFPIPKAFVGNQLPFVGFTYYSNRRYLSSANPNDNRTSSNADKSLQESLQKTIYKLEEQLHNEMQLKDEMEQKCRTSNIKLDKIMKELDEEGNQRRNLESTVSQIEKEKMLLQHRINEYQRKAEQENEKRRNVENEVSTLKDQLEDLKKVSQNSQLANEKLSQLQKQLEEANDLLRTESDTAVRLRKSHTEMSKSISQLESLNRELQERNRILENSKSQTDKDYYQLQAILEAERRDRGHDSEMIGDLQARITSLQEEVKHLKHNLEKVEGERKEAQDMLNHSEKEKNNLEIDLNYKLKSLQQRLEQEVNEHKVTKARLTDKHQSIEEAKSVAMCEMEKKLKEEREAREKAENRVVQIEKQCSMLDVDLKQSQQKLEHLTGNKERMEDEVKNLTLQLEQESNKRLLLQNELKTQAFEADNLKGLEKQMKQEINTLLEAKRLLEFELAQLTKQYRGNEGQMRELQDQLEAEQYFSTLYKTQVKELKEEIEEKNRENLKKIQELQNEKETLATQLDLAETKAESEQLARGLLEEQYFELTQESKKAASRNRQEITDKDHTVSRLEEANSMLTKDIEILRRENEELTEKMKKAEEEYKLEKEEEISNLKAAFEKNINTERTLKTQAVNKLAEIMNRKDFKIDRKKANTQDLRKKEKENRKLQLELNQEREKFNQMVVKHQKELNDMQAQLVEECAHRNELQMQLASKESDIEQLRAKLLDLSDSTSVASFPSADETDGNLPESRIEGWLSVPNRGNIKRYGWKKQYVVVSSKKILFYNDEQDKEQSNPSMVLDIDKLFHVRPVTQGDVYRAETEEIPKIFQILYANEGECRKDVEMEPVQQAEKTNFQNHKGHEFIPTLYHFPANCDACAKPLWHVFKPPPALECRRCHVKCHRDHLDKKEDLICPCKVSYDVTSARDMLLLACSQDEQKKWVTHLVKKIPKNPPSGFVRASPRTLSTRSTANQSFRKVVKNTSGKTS
# HMG-COA reductase, sequence (P04035 whole entry, species assumed): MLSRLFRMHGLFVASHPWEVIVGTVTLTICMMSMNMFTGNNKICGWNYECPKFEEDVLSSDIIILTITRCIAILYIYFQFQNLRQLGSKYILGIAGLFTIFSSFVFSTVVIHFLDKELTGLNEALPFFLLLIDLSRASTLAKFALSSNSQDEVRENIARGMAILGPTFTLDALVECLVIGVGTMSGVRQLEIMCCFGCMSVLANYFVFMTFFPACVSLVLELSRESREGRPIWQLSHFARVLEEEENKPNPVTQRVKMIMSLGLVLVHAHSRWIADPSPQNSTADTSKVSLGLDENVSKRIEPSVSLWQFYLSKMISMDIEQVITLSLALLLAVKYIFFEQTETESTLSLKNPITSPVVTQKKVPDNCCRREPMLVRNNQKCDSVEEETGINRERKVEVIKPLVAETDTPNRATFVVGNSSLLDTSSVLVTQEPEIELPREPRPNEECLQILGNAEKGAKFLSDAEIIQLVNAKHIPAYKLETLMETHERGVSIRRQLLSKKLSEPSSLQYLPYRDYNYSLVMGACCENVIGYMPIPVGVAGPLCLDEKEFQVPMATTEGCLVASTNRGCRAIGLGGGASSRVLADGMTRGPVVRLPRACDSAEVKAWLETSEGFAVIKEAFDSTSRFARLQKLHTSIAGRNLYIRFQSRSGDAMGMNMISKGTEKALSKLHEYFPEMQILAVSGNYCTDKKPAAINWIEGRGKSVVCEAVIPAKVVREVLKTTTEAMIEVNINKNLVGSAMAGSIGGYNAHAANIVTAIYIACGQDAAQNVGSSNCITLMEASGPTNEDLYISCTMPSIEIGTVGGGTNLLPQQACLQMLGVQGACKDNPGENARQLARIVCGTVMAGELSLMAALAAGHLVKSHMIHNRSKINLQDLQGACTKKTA
# Cdc42, sequence (P60953 whole entry): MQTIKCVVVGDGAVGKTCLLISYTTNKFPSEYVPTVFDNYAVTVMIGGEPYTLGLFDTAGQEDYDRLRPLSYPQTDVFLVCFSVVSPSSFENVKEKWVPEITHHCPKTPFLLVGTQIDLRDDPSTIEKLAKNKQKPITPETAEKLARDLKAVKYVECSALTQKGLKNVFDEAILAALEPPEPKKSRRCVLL
# RhoA, sequence (P61586 whole entry): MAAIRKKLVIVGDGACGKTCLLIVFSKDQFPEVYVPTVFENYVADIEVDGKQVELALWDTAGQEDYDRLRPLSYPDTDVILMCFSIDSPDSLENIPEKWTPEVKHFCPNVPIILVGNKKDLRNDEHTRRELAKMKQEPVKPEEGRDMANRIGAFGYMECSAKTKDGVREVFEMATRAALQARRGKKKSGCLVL
compound,measurement,setting,value
O=C(O)/C=C/c1cccc(Nc2cnc3ccccc3n2)c1 [HL07],phenylephrine (PE)-induced contraction,rat aorta,inhibited
CC1=C(C(=O)Nc2cc3cn[nH]c3cc2F)C(c2ccc(Cl)cc2F)N=C(c2ccnc(Cl)c2)N1 (stereo not shown) [GSK-25],blood pressure,[1],drop in blood pressure
same,IC50,ROCK1,7 nM
Cc1ccc(C(=O)OCc2ccc([C@@H](CN)C(=O)Nc3ccc4cnccc4c3)cc2)c(C)c1 [AR-13324],intraocular pressure,[2],reduced intraocular pressure
CC(C)NC(=O)COc1cccc(-c2nc(Nc3ccc4[nH]ncc4c3)c3ccccc3n2)c1 [Belumosudil],Tsp-1 and CTGF mRNA levels,PASMC,significant down-regulations
same,infarct volume,[3],dose-dependently reduces infarct volume
CC(ONC(=O)c1cc(C(F)(F)F)cc(C(F)(F)F)c1)C(=O)Nc1ccc(Cl)cc1 (stereo not shown) [CCG-1423],glucose uptake and tolerance,[4],improved glucose uptake and tolerance
same,IC50,Rho signaling,1500 nM
same,spontaneous PC-3 cell invasion through a Matrigel matrix,[5],selectively inhibited
CCCOC(=O)c1cccc(-c2cc(C(=O)Nc3ccncc3F)ccc2CN)c1 [Sovesudil],Intraocular Pressure (IOP),[6]; ocular normotensive and acute hypertensive male rabbits,effectively reduces Intraocular Pressure
same,hyperemia,[6]; rabbits,without causing distinct hyperemia
same,IC50,ROCK2,2.3 nM
same,IC50,ROCK1,3.7 nM
O=S(=O)(c1cccc2c(I)cccc12)N1CCCNCC1 [ML-07 hydrochloride],IC50,MLCK; read-out: IC50 for MLCK,300 nM
c1cc(-c2ncco2)cc(-c2nnc(Nc3ccc4[nH]ncc4c3)s2)c1 [ROCK2-IN-2],IC50,ROCK2,< 1000 nM
COc1ccc(CC(=O)Nc2nc3c(s2)CCc2ccccc2-3)cc1OC [ZINC00881524],levels of ROCK1,[7],decreases levels of ROCK1
COc1ccc2c(c1)C[C@H](C(=O)Nc1ccc(-c3cn[nH]c3)cc1OCCN(C)C)CO2 [Chroman 1],IC50,MRCK,150 nM
N[C@H](CNc1nc(-c2ccncc2)nc2sc3c(c12)CCCC3)Cc1ccccc1 [CRT0066854],IC50,ROCK2,620 nM
N[C@H](Cc1c[nH]c2ccccc12)C(=O)N/N=C/c1ccc2nccnc2c1 [Rhosin hydrochloride],Kd,RhoA,~400 nM
Cc1cncc2cccc(S(=O)(=O)N3CCCNC[C@@H]3C)c12 [Compound H-1152],neurite length,"neuronal cultures; 10 μM, BMP4 and LIF cultures",increases neurite length
same,neuronal survival,neuronal cultures; 0.5-10 μM,no decreased neuronal survival
same,Ki,ROCK [8],1.6 nM
same,Ki,PKC,9270 nM
same,Ki,MLCK,10100 nM
O=C(Nc1ccc(Cl)cc1)C1CCCN(C(=O)c2cccc(-c3ccco3)c2)C1 (stereo not shown) [CCG-203971],IC50,PC-3 cell,4200 nM
same,TGF-β-induced MKL1 expression,MKL1 expression,significantly represses
O=C(Nc1cn[nH]c1-c1ccccn1)c1nn(C2CCNCC2)cc1Cl [BDP5290],IC50,MRCKα,10 nM
same,IC50,ROCK2,50 nM
same,MLC phosphorylation induced by MRCKβ,[9],completely inhibits
same,IC50,ROCK1,5 nM
COc1c(B(O)O)cccc1-c1nc2ccc3[nH]ncc3c2c2c1CCC2 [HSD1590],Kd,ROCK [10],< 2 nM
same,migration,[11],impressive attenuation in migration
CCn1c(-c2nonc2N)nc2cnc(Oc3cccc(NC(=O)c4ccc(OCCN5CCOCC5)cc4)c3)cc21 [GSK269962A],blood pressure,[1],dose-dependent reduction in blood pressure
Cc1c[nH]c2ncnc(N3CCC(CN)(C(=O)Nc4cccc(OC(=O)N(C)C)c4)CC3)c12 [LX7101],IC50,PKA; read-out: IC50 for PKA,< 1 nM
COCc1c(C(C)C)nc(C(C)C)c(/C=C/[C@@H](O)C[C@@H](O)CC(=O)O)c1-c1ccc(F)cc1 [Cerivastatin],Ki,HMG-COA reductase,1.3 nM
same,proliferation and invasiveness of MDA-MB-231 cells,MDA-MB-231 cells,inhibits proliferation and invasiveness
O=c1[nH]ccc2cc(OC3CCNCC3)ccc12 [SAR407899],IC50,ROCK2,135 nM
same,Ki,rat ROCK-2,41 nM
same,ROCK-mediated phosphorylation of MYPTT696,[12],inhibits
N[C@H](Cc1c[nH]c2ccccc12)C(=O)N/N=C/c1ccc2nccnc2c1 [Rhosin],lung metastasis of B16BL6 and 4T1 cells,B16BL6 and 4T1 cells,abrogates the lung metastasis
same,"interaction with Cdc42 or Rac1, or LARG",[13],does not interact
O=S(=O)(c1cccc2cnccc12)N1CCNCC1 [HA-100],IC50,PKA; read-out: IC50 for cAMP-dependent protein kinase (PKA),8000 nM
same,IC50,[14],4000 nM
same,Ki,PKC,6500 nM
same,IC50,PKC; read-out: IC50 for protein kinase C (PKC),12000 nM
same,IC50,MLCK; read-out: IC50 for MLC-kinase,240000 nM
same,Ki,MLCK,61000 nM
Br.Oc1cc2c(cc1O)C(Cc1cccc3ccccc13)NCC2 (stereo not shown) [YS-49],IC50,RAW 264.7,30000 nM
same,IC50,RAVSMC,22000 nM
same,iNOS gene expression induced by LPS and/or cytokines,iNOS gene expression,suppresses iNOS gene expression
"myosin light chain kinase inhibitor peptide, sequence RKKYKYRRK (SEQ ID NO:1) (MLCK inhibitor peptide 18) [MLCK18]",inhibition of PKA,PKA,without inhibiting PKA
same,selectivity vs CaM kinase II,CaM kinase II,4000 fold
same,IC50,MLCK; read-out: IC50 for MLCK,50 nM
Cc1cccc(COc2cccc(/C=C3\C(=O)NN(c4ccccc4)C3=O)c2)c1 [Compound Y16],Kd,[15],76 nM
same,RhoA-GTP formation induced by serum,NIH 3T3 cells,inhibit RhoA-GTP formation
same,serum or SDF-1α-induced phospho-MLC and phospho-FAK formation,NIH 3T3 cells,efficiently inhibits
NS(=O)(=O)c1ccc(N2N=C(c3ccccc3)CC2c2ccccc2)cc1 (stereo not shown) [MLS-573151],activity against other GTPases family members,[16],inactive
same,EC50,Cdc42,2000 nM
same,fluorescence intensities of phagocytosed beads or bacteria (phagocytosis efficiency),granulocytes,markedly reduced
Cc1ccc(NC(=O)c2cccc(OCc3c(C)noc3C)c2)cc1S(N)(=O)=O [Compound Z62954982],activity of other Rho GTPases,[17],without affecting the activity
same,IC50,Rac1,12000 nM
same,times more effective than NSC23766,Rac1,4 times
"C[C@@H](N)c1ccc(C(=O)Nc2ccncc2)cc1 [Wf-536, (+)-(R)-4-(1-aminoethyl)-N-(4-pyridyl)benzamide monohydrochloride]",in vivo pulmonary metastasis of B16 melanoma,B16 melanoma [18],effectively reduced
same,in vitro invasion of B16 melanoma,B16 melanoma [19],effectively reduced
